After the bases stand the sugars from the 5' end (letter, count) and the backbone: PS all phosphorothioate, else s phosphorothioate and o phosphodiester by linkage. Methylation of C is not given here. e = 2'-O-(2-methoxyethyl) (MOE); k = constrained ethyl (cEt); d = 2'-deoxy (DNA); m = 2'-O-methyl
Biological target: HSD17B13
Conditions: ASO, HepaRG

Sequence: CTCCTGGTACATGCCA (sugars k3 d10 k3, PS)
- target mRNA inhibition (1 µM): 47%

Sequence: CTCCTTATGTTATCTC (sugars k3 d10 k3, PS)
- target mRNA inhibition (1 µM): 57%

Sequence: CTCGCCTAAAGGAGAT (sugars k3 d10 k3, PS)
- target mRNA inhibition (1 µM): 56%

Sequence: CTCGCGAGATGATGTT (sugars k3 d10 k3, PS)
- target mRNA inhibition (1 µM): 40%

Sequence: CTCTAAAGCAGGCTAC (sugars k3 d10 k3, PS)
- target mRNA inhibition (1 µM): 51%

Sequence: CTCTGGGACCAAGGAT (sugars k3 d9 k3 e1, PS)
- target mRNA inhibition (1 µM): 62%

Sequence: CTCTTAGCTGTGCACT (sugars k3 d10 k3, PS)
- target mRNA inhibition (1 µM): 53%

Sequence: CTCTTATCTGATATGA (sugars k3 d10 k3, PS)
- target mRNA inhibition (1 µM): 7%

Sequence: CTCTTCATCCTTGGTG (sugars k3 d10 k3, PS)
- target mRNA inhibition (1 µM): 25%

Sequence: CTGAAATTGATACACC (sugars k3 d10 k3, PS)
- target mRNA inhibition (1 µM): 67%

Sequence: CTGAAATTGATACACC (sugars kkdddddddddkekek, PS)
- target mRNA inhibition (1 µM): 45%

Sequence: CTGAGAAGATCGGCTG (sugars k3 d10 k3, PS)
- target mRNA inhibition (1 µM): 37%

Sequence: CTGAGCTAGACAATTG (sugars k3 d10 k3, PS)
- target mRNA inhibition (1 µM): 56%

Sequence: CTGATGTCAGACCTCT (sugars k3 d10 k3, PS)
- target mRNA inhibition (1 µM): 35%

Sequence: CTGATTTAGTTGGTAG (sugars k3 d10 k3, PS)
- target mRNA inhibition (0.02 µM): 0%
- target mRNA inhibition (0.078 µM): 0%
- target mRNA inhibition (0.313 µM): 41%
- target mRNA inhibition (1 µM): 78%
- target mRNA inhibition (1.25 µM): 70%
- target mRNA inhibition (5 µM): 88%

Sequence: CTGCCAGGGAATGCTC (sugars k3 d10 k3, PS)
- target mRNA inhibition (1 µM): 23%

Sequence: CTGCTACTCTAGGAGA (sugars k3 d10 k3, PS)
- target mRNA inhibition (1 µM): 66%

Sequence: CTGCTAGTGCCAAACC (sugars kkdddddddddkekek, PS)
- target mRNA inhibition (1 µM): 51%

Sequence: CTGCUAGTGCCAAACC (sugars k3 d1 m1 d8 k3, PS)
- target mRNA inhibition (1 µM): 67%

Sequence: CTGCUGCTAGTGCCAA (sugars k3 d1 m1 d8 k3, PS)
- target mRNA inhibition (1 µM): 66%

Sequence: CTGGAAGGAGGATTCA (sugars k3 d10 k3, PS)
- target mRNA inhibition (1 µM): 39%

Sequence: CTGGAGGTATGTCATA (sugars k3 d10 k3, PS)
- target mRNA inhibition (1 µM): 23%

Sequence: CTGGATATACTGTCCC (sugars k3 d10 k3, PS)
- target mRNA inhibition (1 µM): 20%

Sequence: CTGGGACCAAGGATAT (sugars k3 d10 k3, PS)
- target mRNA inhibition (1 µM): 32%

Sequence: CTGGGATACTATTCTC (sugars k3 d10 k3, PS)
- target mRNA inhibition (1 µM): 57%

Sequence: CTGGTTCAGTCCTTGT (sugars k3 d10 k3, PS)
- target mRNA inhibition (1 µM): 63%

Sequence: CTGTGAGAGGATAGTG (sugars k3 d10 k3, PS)
- target mRNA inhibition (1 µM): 33%

Sequence: CTGTGGCATGGCTACA (sugars k3 d1 m1 d8 k3, PS)
- target mRNA inhibition (1 µM): 35%

Sequence: CTGTGGCATGGCTACA (sugars k3 d9 k3 e1, PS)
- target mRNA inhibition (1 µM): 58%

Sequence: CTGTGGCATGGCTACA (sugars k3 d10 k3, PS)
- target mRNA inhibition (1 µM): 66%

Sequence: CTTAATTTTCGGGTTC (sugars k3 d10 k3, PS)
- target mRNA inhibition (1 µM): 37%

Sequence: CTTACATGATTAAGCA (sugars k3 d10 k3, PS)
- target mRNA inhibition (1 µM): 44%

Sequence: CTTACCAATATGGGAT (sugars k3 d10 k3, PS)
- target mRNA inhibition (1 µM): 11%

Sequence: CTTACGACTTCATCTG (sugars k3 d10 k3, PS)
- target mRNA inhibition (1 µM): 38%

Sequence: CTTATGATAATTTGGT (sugars k3 d10 k3, PS)
- target mRNA inhibition (1 µM): 2%

Sequence: CTTATTGGTAAGTATT (sugars kkdddddddddkekek, PS)
- target mRNA inhibition (1 µM): 9%

Sequence: CTTAUTGGTAAGTATT (sugars k3 d1 m1 d8 k3, PS)
- target mRNA inhibition (1 µM): 0%

Sequence: CTTCACTATATTGCAT (sugars k3 d10 k3, PS)
- target mRNA inhibition (1 µM): 50%

Sequence: CTTCAGTTAGCAGCTA (sugars k3 d10 k3, PS)
- target mRNA inhibition (1 µM): 50%

Sequence: CTTCCAAGCATTCCAT (sugars k3 d10 k3, PS)
- target mRNA inhibition (1 µM): 57%

Sequence: CTTCTATTAGTTGGCC (sugars k3 d10 k3, PS)
- target mRNA inhibition (1 µM): 11%

Sequence: CTTGACAATGGTTGCC (sugars k3 d10 k3, PS)
- target mRNA inhibition (1 µM): 58%

Sequence: CTTGATCTCTTAGCTG (sugars k3 d10 k3, PS)
- target mRNA inhibition (1 µM): 51%

Sequence: CTTGGAAGGAGACTGG (sugars k3 d10 k3, PS)
- target mRNA inhibition (1 µM): 60%

Sequence: CTTGGGTCCATTGTTT (sugars k3 d10 k3, PS)
- target mRNA inhibition (1 µM): 44%

Sequence: CTTGTGTAGTCCTAGG (sugars k3 d10 k3, PS)
- target mRNA inhibition (0.02 µM): 7%
- target mRNA inhibition (0.078 µM): 13%
- target mRNA inhibition (0.313 µM): 39%
- target mRNA inhibition (1 µM): 71%
- target mRNA inhibition (1.25 µM): 70%
- target mRNA inhibition (5 µM): 87%

Sequence: CTTTAGCTTAAACTCC (sugars k3 d10 k3, PS)
- target mRNA inhibition (1 µM): 69%

Sequence: CTTTGAGACTCTTGTT (sugars k3 d1 m1 d8 k3, PS)
- target mRNA inhibition (1 µM): 15%

Sequence: CTTTGCAGCATTGATT (sugars k3 d9 k3 e1, PS)
- target mRNA inhibition (1 µM): 56%

Sequence: CTTTGCAGCATTGATT (sugars kkdddddddddkekek, PS)
- target mRNA inhibition (1 µM): 49%

Sequence: CTTTTAGTCAGGTAGA (sugars k3 d10 k3, PS)
- target mRNA inhibition (1 µM): 33%

Sequence: CTTTTGGTGGACTTCA (sugars k3 d10 k3, PS)
- target mRNA inhibition (1 µM): 10%

Sequence: CTTTUTATAGACTGGG (sugars k3 d1 m1 d8 k3, PS)
- target mRNA inhibition (1 µM): 34%

Sequence: GAAAACTCAGCCAGCA (sugars k3 d10 k3, PS)
- target mRNA inhibition (0.02 µM): 0%
- target mRNA inhibition (0.078 µM): 2%
- target mRNA inhibition (0.313 µM): 51%
- target mRNA inhibition (1 µM): 78%
- target mRNA inhibition (1.25 µM): 73%
- target mRNA inhibition (5 µM): 75%

From the OligoGym collection
